According to US20100291204A1, “COMBINATION OF A LONG-ACTING HYPNOTIC AGENT AND A SHORT-ACTING HYPNOTIC AGENT AND THERAPEUTIC USE THEREOF” (SANOFI-AVENTIS, priority 2005, published 2010):
Marks after values point to notes of the source that are not given here.

Key:
[1] = tested on: male Sprague-Dawley rats; experiment: Effects on sleep in rats (6 hours of recording, day 1 versus vehicle day 0); assay type: in vivo, rat; settings: for Lag time of appearance of NREM sleep: change versus vehicle control; for Duration of NREM sleep / Duration of sleep: total over 6 hours of recording
Protocol: For this study, four groups of male Sprague-Dawley rats are used, each group comprising from 5 to 9 rats.
Group A receives eplivanserin (oral route, hemifumarate) at a dose of 3 mg/kg p.o.
Group B receives zolpidem (oral route, hemitartrate) at a dose of 3 mg/kg p.o.
Group C receives (orally) in combination 3 mg/kg p.o. of eplivanserin hemifumarate and 3 mg/kg of zolpidem hemitartrate, the two compounds being administered with an interval of 5 minutes.
Finally, group D receives zolpidem (oral route, hemitartrate) at a dose of 10 mg/kg p.o.
The data are recorded on day 0 (control day), when the animals receive only a vehicle (distilled water and methylcellulose) and on day 1 when the animals receive the active principles.
The data are recorded for 6 hours each day, the active principles being administered 15 minutes before the start of recording.
In Table I, the results are expressed as percentages relative to the control groups receiving only the vehicle, unless otherwise indicated.
Duration of sleep: total duration of sleep during the 6 hours of recording. Duration of NREM sleep: total duration of NREM sleep during the 6 hours of recording. Lag time of appearance of NREM sleep: time measured from the start of the recording up to the moment of the first period of NREM sleep. Mean duration of the periods of NREM sleep: duration of NREM sleep/number of periods of NREM sleep during the 6 hours of recording.

[2] = cited from earlier work; for bioavailability: in vivo
[3] = Group B: zolpidem hemitartrate 3 mg/kg p.o., relative to vehicle control
[4] = Group D: zolpidem hemitartrate 10 mg/kg p.o., 6 hours of recording, relative to vehicle control
[5] = Group D: zolpidem hemitartrate 10 mg/kg p.o., relative to vehicle control

CN(C)CCO/N=C(/C=C/c1ccc(O)cc1)c1ccccc1F [eplivanserin]
Lag time of appearance of NREM sleep ([1]; Group A: eplivanserin hemifumarate 3 mg/kg p.o., from start of recording to first period of NREM sleep): +0.6 min | bioavailability [2]: 80%

Cc1ccc(-c2nc3ccc(C)cn3c2CC(=O)N(C)C)cc1 [zolpidem]
Mean duration of the periods of NREM sleep ([1]; Group B: zolpidem hemitartrate 3 mg/kg p.o., 6 hours of recording, relative to vehicle control): −15% | Lag time of appearance of NREM sleep ([1]; Group B: zolpidem hemitartrate 3 mg/kg p.o., from start of recording to first period of NREM sleep): -6 min | Duration of NREM sleep [1, 3]: +4% | Duration of sleep [1, 3]: −2% | Mean duration of the periods of NREM sleep [1, 4]: +31%** | Mean number of periods of NREM sleep [1, 4]: +1% | Lag time of appearance of NREM sleep ([1]; Group D: zolpidem hemitartrate 10 mg/kg p.o.): -1.2 min | Duration of NREM sleep [1, 5]: +33%** | Duration of sleep [1, 5]: −20%** | bioavailability [2]: 70% | duration of action ([2]; mean dose between 5 and 10 mg in a conventional formulation): up to 6 hours
